Reference: US6710047B2, “Phthalazines with angiogenesis inhibiting activity” (Novartis AG, priority 1997, dated 2004)
Counter-ions that a name gives are not always drawn. Like-named read-outs stand apart in the source and are kept apart here.

Key:
[1] = biological target: T1, Flt-1 VEGF-receptor tyrosine kinase (Homo sapiens, UniProt P17948); assay: Test for activity against Flt-1 VEGF-receptor tyrosine kinase
T1 sequence (P17948 827-1158 limits assumed): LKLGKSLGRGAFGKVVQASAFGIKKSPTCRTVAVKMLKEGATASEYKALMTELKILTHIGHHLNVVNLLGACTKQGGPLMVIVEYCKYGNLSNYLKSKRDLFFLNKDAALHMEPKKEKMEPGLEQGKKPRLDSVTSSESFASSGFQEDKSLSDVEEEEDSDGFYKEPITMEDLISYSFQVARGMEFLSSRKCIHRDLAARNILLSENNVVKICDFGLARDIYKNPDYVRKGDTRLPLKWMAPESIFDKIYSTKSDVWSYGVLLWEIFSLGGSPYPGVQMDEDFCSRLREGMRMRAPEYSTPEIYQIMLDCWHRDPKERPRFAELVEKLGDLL
Description: Test for activity against VEGF-receptor tyrosine kinase. The test is conducted using Flt-1 VEGF-receptor tyrosine kinase. […] The reaction is then ended by the addition of 10 μl 0.25 M ethylenediaminetetraacetate (EDTA) pH 7. Using a multichannel dispenser (LAB SYSTEMS, USA), an aliquot of 20 μl is applied to a PVDF (=polyvinyl difluoride) Immobilon P membrane (Millipore, USA), incorporating a Millipore microtiter filter manifold, and connected to a vacuum.
The test is conducted using Flt-1 VEGF-receptor tyrosine kinase, as described hereinabove.

[2] = kinase domain of Flt-1, poly(Glu,Tyr) 4:1, 8 μM [33P]-ATP, 15 minutes at room temperature

melting point | IC50 [1] [nM] | IC50 [1, 2] [nM] | Structure (SMILES)
220 to 222 °C | 397 |  | Clc1ccc(Nc2nnc(Cc3ccncc3)c3ncccc23)cc1 [Example 73, 5-(4-Chloroanilino)-8-(4-pyridylmethyl)pyrido[2,3-d]pyridazine]
> 270 °C |  |  | CC(=O)Nc1ccc(Nc2nnc(Cc3ccncc3)c3ccccc23)cc1 [Example 11, 1-(4-Acetaminoanilino)-4-(4-pyridylmethyl)phthalazine]
220 to 221 °C | 3200 |  | Clc1ccc(Nc2nnc(Cc3ccncc3)c3ccncc23)cc1 [Example 76, 4-(4-Chloroanilino)-1-(4-pyridylmethyl)pyrido[3,4-d]pyridazine]
137 to 139 °C | 16000 |  | c1ccc2c(NC3CCCCC3)nnc(Cc3ccncc3)c2c1 [Example 57, 1-Cyclohexylamino-4-(4-pyridylmethyl)phthalazine]
195 to 197 °C | 515 |  | COc1ccc(Nc2nnc(Cc3ccncc3)c3ccccc23)cc1Cl [Example 23, 1-(3-Chloro-4-methoxyanilino)-4-(4-pydridylmethyl)phthalazine]
148 to 149 °C | 401 |  | CSc1cccc(Nc2nnc(Cc3ccncc3)c3ccccc23)c1 [Example 67D]
143 to 144 °C | 440 |  | CCc1cccc(Nc2nnc(Cc3ccncc3)c3ccccc23)c1 [Example 67E]
210 to 212 °C | 42 |  | Cc1ccc(Nc2nnc(Cc3ccncc3)c3ccccc23)cc1F [Example 44C, 1-(3-Fluoro-4-methylanilino)-4-(4-pyridylmethyl)phthalazine]
193 to 195 °C | 1200 |  | CCOc1cccc(Nc2nnc(Cc3ccncc3)c3ccccc23)c1 [Example 67F]
249 to 250 °C | 410 |  | Clc1ccc(Nc2nnc(Cc3ccncc3)c3ccccc23)cc1Cl [Example 21, 1-(3,4-Dichloroanilino)-4-(4-pyridylmethyl)phthalazine]
192 to 195 °C |  |  | Cc1ccc(Nc2nnc(Cc3ccncc3)c3ccccc23)cc1O (hydrate or solvate) [Example 67B]
 | 1200 |  | FC(F)C(F)(F)Oc1cccc(Nc2nnc(Cc3ccncc3)c3ccccc23)c1 [Example 67S]
 |  | 1000 | CC1(c2ccc(Nc3nnc(Cc4ccncc4)c4ccccc34)cc2)OCCO1 [Example 70B, 1-[(2′-methyl-1′,3′-dioxolan-2′-yl)-anilino]-4-(4-pyridylmethyl)phthalazine]
 | 1000 |  | Nc1ccc2c(Cc3ccncc3)nnc(Nc3cccc(Cl)c3)c2c1 [Example 32B]
227 to 228 °C | 1000 |  | Clc1ccc(Nc2nnc(Cc3ccncc3)c3cnccc23)cc1 [Example 75, 1-(4-Chloroanilino)-4-(4-pyridylmethyl)pyrido[3,4-d]pyridazine]
 | 480 |  | Cc1ccc(Nc2nnc(Cc3ccncc3)c3ccc(N)cc23)cc1 [Example 32D]
 | 793 |  | COc1cccc(Nc2nnc(Cc3ccncc3)c3ccc(N)cc23)c1 [Example 32F]
 | 328 |  | CC(C)c1cccc(Nc2nnc(Cc3ccncc3)c3ccccc23)c1 [Example 67Q]
 | 1000 |  | CC(=O)c1cccc(Nc2nnc(Cc3ccncc3)c3ccccc23)c1 [Example 70A, 1-(3-Acetylanilino)-4-(4-pyridylmethyl)phthalazine]
160 to 163 °C |  |  | COc1ccc(Nc2nnc(Cc3ccncc3)c3ccc(NC(C)=O)cc23)cc1.Cl
226 to 228 °C |  |  | [O-][n+]1nc(Nc2ccc(Cl)cc2)c2ccccc2c1Cc1ccncc1 [Example 55, 1-(4-Chloroanilino)-4-(4-pyridylmethyl)phthalazine-3-oxide]
196 to 200 °C |  |  | CC(C)(C)c1ccc(Nc2nnc(Cc3ccncc3)c3ccccc23)cc1.Cl.Cl

melting point | IC50 [1] [nM] | IC50 [1, 2] [nM] | Structure (SMILES)
137 to 139 °C |  |  | c1cncc(Nc2nnc(Cc3ccncc3)c3ccccc23)c1 [Example 15, 1-(3-Pyridylamino)-4-(4-pyridylmethyl)phthalazine]
 |  | 907 | CC(c1ccncc1)c1nnc(Nc2ccc(Cl)cc2)c2ccccc12 (racemic) [Example 64, rac 1-(4-Chloroanilino) 4-[1-(4-pyridyl)ethyl]phthalazine]
217 to 220 °C |  |  | Cl.Cl.c1ccc(Nc2nnc(Cc3ccncc3)c3ccccc23)cc1
162 to 166 °C |  |  | CC(=O)Nc1ccc2c(Cc3ccncc3)nnc(Nc3ccccc3)c2c1.Cl
> 250 °C |  |  | CC(C)c1ccc(Nc2nnc(Cc3ccncc3)c3ccccc23)cc1 (as salt: hydrochloride) [Example 47, 1-(4-Isoprolylanilino)-4-(4-pyridylmethyl)phthalazine dihydrochloride]
110 to 111 °C |  |  | COc1cc(Nc2nnc(Cc3ccncc3)c3ccccc23)cc(OC)c1OC [Example 54, 1-(3,4,5-Trimethoxyanilino)-4-(4-pyridylmethyl)phthalazine]
190 °C (dec.) |  |  | C[C@@H](Nc1nnc(Cc2ccncc2)c2ccccc12)c1ccccc1.Cl.Cl
233 to 236 °C |  |  | Clc1ccc(Nc2nnc(NCc3ccncc3)c3ccccc23)cc1 [Example 49, 1-(4-Chloroanilino)-4-(4-pyridylmethylamino)phthalazine]
185 to 187 °C |  |  | FC(F)C(F)(F)Oc1cccc(Nc2nnc(Cc3ccncc3)c3ccccc23)c1 (hydrate or solvate) [Example 67S]
 | 188 |  | CC(C)c1ccc(Nc2nnc(Cc3ccncc3)c3ccccc23)cc1 [Example 47, 1-(4-Isoprolylanilino)-4-(4-pyridylmethyl)phthalazine dihydrochloride]
156 to 159 °C |  |  | COc1cccc(Nc2nnc(Cc3ccncc3)c3ccc(NC(C)=O)cc23)c1.Cl
 | 774 |  | Cc1ccc(Nc2nnc(Cc3ccncc3)c(C)c2C)cc1 [Example 82B, 3-(4-methylanilino)-4,5-dimethyl-6-(pyridin-4-yl)methylpyridazine]
 | 478 |  | Cc1c(Cc2ccncc2)nnc(Nc2ccc(Cl)cc2)c1C [Example 82A, 3-(4-chloroanilino)-4,5-dimethyl-6-(pyridin-4-yl)methylpyridazine]
217 to 219 °C |  |  | Oc1cccc(Nc2nnc(Cc3ccncc3)c3ccccc23)c1
 | 210 |  | Clc1cccc(Nc2nnc(Cc3ccncc3)c3ccccc23)c1 [Example 5, 1-(3-Chloroanilino)-4-(4-pyridylmethyl)phthalazine 1,8 hydrochloride]
189 to 191 °C |  |  | c1ccc(-c2ccc(Nc3nnc(Cc4ccncc4)c4ccccc34)cc2)cc1
 | 335 |  | Cc1ccc(Nc2nnc(Cc3ccncc3)c3ccccc23)cc1O [Example 67B]
 | 42 |  | Nc1ccc2c(Cc3ccncc3)nnc(Nc3ccc(Cl)cc3)c2c1 [Example 32A, 7-Amino-1-(4-chloroanilino)-4-(4-pyridylmethyl)phthalazine hydrochloride]
 | 2500 |  | Cc1cccc(Nc2nnc(Cc3ccncc3)c(C)c2C)c1 [Example 82E, 3-(3-methylanilino)-4,5-dimethyl-6-(pyridin-4-yl)methylpyridazine]
260 to 265 °C |  |  | CC(=O)Nc1ccc2c(Cc3ccncc3)nnc(Nc3ccc(Cl)cc3)c2c1.Cl
 | 1270 |  | Clc1cccc(Oc2nnc(Cc3ccncc3)c3ccccc23)c1 [Example 72A, 1-(3-Chlorophenoxy)-4-(4-pyridylmethyl)phthalazine]
118 to 120 °C |  |  | COc1cccc(Nc2nnc(Cc3ccncc3)c3ccccc23)c1
